For series [1], the target named is T1, human glucocorticoid receptor (Homo sapiens, UniProt P04150).
T1 sequence (P04150 1-777): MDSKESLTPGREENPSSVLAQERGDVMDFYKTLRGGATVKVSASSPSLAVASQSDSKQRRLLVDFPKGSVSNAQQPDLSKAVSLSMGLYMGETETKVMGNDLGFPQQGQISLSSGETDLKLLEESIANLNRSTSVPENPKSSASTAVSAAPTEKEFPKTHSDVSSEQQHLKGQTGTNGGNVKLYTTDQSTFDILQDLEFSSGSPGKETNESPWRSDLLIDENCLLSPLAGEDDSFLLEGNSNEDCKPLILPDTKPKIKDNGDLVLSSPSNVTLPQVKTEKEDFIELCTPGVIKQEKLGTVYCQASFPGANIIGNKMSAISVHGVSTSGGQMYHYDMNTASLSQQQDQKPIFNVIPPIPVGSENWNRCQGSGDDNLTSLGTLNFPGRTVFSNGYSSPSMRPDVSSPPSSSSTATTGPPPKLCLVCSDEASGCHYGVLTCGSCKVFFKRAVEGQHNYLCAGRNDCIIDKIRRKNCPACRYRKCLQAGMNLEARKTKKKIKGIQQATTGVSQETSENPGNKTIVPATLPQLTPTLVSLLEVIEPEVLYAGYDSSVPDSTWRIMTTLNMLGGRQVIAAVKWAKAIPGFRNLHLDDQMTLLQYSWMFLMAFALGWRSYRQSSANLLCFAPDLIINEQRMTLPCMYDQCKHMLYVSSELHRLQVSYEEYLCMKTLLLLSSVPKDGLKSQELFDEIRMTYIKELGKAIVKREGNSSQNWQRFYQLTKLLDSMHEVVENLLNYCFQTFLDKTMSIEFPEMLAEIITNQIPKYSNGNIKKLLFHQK
Description: Relative binding affinity to the human glucocorticoid receptor / anti-glucocorticoid activity. As to conditions: comparative ratio of anti-glucocorticoid to anti-progesterone activity.

For the next series, the target named is Progesterone (Homo sapiens, UniProt P06401). As to conditions: comparative activity, Table 2; cited from earlier work.
Sequence of Progesterone (P06401 whole entry): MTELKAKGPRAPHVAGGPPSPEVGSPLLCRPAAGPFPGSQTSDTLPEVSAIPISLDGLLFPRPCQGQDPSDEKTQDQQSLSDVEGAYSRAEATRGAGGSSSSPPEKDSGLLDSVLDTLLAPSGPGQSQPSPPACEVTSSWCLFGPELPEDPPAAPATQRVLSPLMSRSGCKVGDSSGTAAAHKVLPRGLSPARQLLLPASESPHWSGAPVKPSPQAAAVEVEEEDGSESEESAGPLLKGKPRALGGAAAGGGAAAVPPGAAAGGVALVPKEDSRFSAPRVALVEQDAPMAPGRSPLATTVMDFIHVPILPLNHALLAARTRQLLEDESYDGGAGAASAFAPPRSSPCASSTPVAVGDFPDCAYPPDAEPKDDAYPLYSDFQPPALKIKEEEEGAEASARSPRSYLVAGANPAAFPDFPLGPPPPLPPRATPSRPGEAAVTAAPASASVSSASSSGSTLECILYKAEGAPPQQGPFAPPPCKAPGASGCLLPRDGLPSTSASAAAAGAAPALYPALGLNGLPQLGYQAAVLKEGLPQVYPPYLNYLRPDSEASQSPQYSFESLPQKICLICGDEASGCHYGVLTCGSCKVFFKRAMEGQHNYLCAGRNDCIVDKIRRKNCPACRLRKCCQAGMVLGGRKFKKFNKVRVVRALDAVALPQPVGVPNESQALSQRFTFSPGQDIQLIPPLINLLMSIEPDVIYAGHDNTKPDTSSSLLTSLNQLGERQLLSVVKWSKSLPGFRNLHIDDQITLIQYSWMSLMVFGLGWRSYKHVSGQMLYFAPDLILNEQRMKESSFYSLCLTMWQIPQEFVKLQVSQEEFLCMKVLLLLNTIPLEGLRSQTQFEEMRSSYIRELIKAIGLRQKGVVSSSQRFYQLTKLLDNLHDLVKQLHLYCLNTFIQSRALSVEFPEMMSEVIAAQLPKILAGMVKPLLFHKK
The conditions of series [2]: Sarkar, 2002; cited from earlier work.
Series [3] addresses T1, human glucocorticoid receptor. As to conditions: cited from earlier work.
For series [4], the system named is HIV+ Patient 1 infected PBMCs. Description: Anti-viral effect in vitro (Table 1), HIV+ Patient 1 infected PBMCs. It counts as cell-based.
For another series, the system named is OM-10.1. Put plainly: Anti-viral effect in vitro (Table 1), OM-10.1 infected cell. It counts as cell-based, HIV.
The next series deals with 92US714. Description: Anti-viral effect in vitro (Table 1), 92US714. It counts as cell-based, HIV. As to conditions: 92US714, Clinical isolate, R5 (NSI).
The subject of a further series is 92US723. Put plainly: Anti-viral effect in vitro (Table 1), 92US723. It counts as cell-based, HIV. As to conditions: 92US723, Clinical isolate, R5X4.
Series [5] deals with alpha 1-acid glycoprotein (AAG). As to conditions: in-vitro studies; cited from earlier work.
For series [6], the system named is HIV+ Patient 3 infected PBMCs. Description: Anti-viral effect in vitro (Table 1), HIV+ Patient 3 infected PBMCs. It counts as cell-based.
A further series has as its system 91US056. Put plainly: Anti-viral effect in vitro (Table 1), 91US056. It counts as cell-based, HIV. As to conditions: 91US056, Clinical isolate, R5 (NSI).
Series [7] relates to HIV+ Patient 2 infected PBMCs. Description: Anti-viral effect in vitro (Table 1), HIV+ Patient 2 infected PBMCs. It counts as cell-based.
The subject of a further series is HIV-1 BaL. Put plainly: Anti-viral effect in vitro (Table 1), HIV-1 BaL. It counts as cell-based. As to conditions: Lab isolate, R5 (NSI).
For another series, the system named is 92US660. Put plainly: Anti-viral effect in vitro (Table 1), 92US660. It counts as cell-based, HIV. As to conditions: 92US660, Clinical isolate, R5 (NSI).
For a further series, the system named is 91US054. Description: Anti-viral effect in vitro (Table 1), 91US054. It counts as cell-based, HIV. As to conditions: 91US054, Clinical isolate, R5 (NSI).
The subject of series [8] is wild type HIV-1 NL43 virus.
The next series deals with ACH-2. Put plainly: Anti-viral effect in vitro (Table 1), ACH-2 infected cell. It counts as cell-based, HIV.
For series [9], the system named is HIV+ Patient 4 infected PBMCs. Description: Anti-viral effect in vitro (Table 1), HIV+ Patient 4 infected PBMCs. It counts as cell-based.
For series [10], the system named is laboratory adapted and clinical isolate viruses (HIV). Description: Inhibition of viral replication, several laboratory adapted and clinical isolate viruses. It counts as cell-based. As to conditions: mifepristone 40-1000 nM (17-430 ng/ml).
A further series has as its system 92US727. Put plainly: Anti-viral effect in vitro (Table 1), 92US727. It counts as cell-based, HIV. As to conditions: 92US727, Clinical isolate, R5 (NSI).
In a further series the test system is U1. Description: Anti-viral effect in vitro (Table 1), U1 infected cell. It counts as cell-based, HIV.
A further series deals with LL58. Description: Anti-viral effect in vitro (Table 1), LL58 infected cell. It counts as cell-based, HIV.
For the next series, the system named is HIV-1 NL43. Put plainly: Anti-viral effect in vitro (Table 1), HIV-1 NL43. It counts as cell-based. As to conditions: HIV-1 NL43, Lab isolate.
The test system of a further series is HIV-1 Ada. Put plainly: Anti-viral effect in vitro (Table 1), HIV-1 Ada. It counts as cell-based. As to conditions: Lab isolate, R5 (NSI).
For a further series, the system named is HIV-1 89.6. Description: Anti-viral effect in vitro (Table 1), HIV-1 89.6. It counts as cell-based. As to conditions: HIV-1 89.6, Lab isolate, R5X4.
A further series has as its system 92US657. Description: Anti-viral effect in vitro (Table 1), 92US657. It counts as cell-based, HIV. As to conditions: 92US657, Clinical isolate, R5 (NSI).
For the next series, the system named is J1.1. Put plainly: Anti-viral effect in vitro (Table 1), J1.1 infected cell. It counts as cell-based, HIV.

pIC50: −log10 of the molar value. Where two headings read alike, the source gives them in different places.

In the case of `CC#C[C@]1(C)CCC2C3CCC4=CC(=O)CCC4=C3[C@@H](c3ccc(NC)cc3)C[C@@]21C` (some centres unmarked), the A-G/A-P in series [1] is given as 290%. Also, the Anti-Progesterone at Progesterone was 21%. For the same compound, the “Serum levels of the metabolite compared with Mifepristone” value in series [2] is given as “always exceeded those of Mifepristone”. For the same compound, the “relative binding affinities to the human glucocorticoid receptor” value in series [3] was 61%. For the same compound, in series [3] (comparative activity, Table 2), the Anti-Glucocorticoid is reported as 61%.

As to “11β-(4dimethylaminophenyl)-17β-hydroxy-17-α-(propyl-lynyl)-4,9-dien-3-one [Mifepristone]”, the “Maximum % Reduction in Viral Replication By Mifepristone in PBMCs” value (“Maximum % Reduction” below) is given as greater than 95% in [4]; greater than 95% in the series with OM-10.1; greater than 90% in the series on 92US714; greater than 90% in the series with 92US723; greater than 90% in series [6]; greater than 95% in the series with 91US056. The “Maximum % Reduction” value is given as greater than 95% in series [7]; greater than 90% in the series on HIV-1 BaL; greater than 90% in the series with 92US660; greater than 95% in the series with 91US054; greater than 95% in the series with ACH-2; greater than 95% in series [9]. The “Maximum % Reduction” value in the series on 92US727 was greater than 95%; with U1, greater than 95%; with LL58, greater than 90%; with HIV-1 NL43 it was greater than 90%; with HIV-1 Ada, greater than 90%; with HIV-1 89.6, greater than 90%. The results for the “Maximum % Reduction” value in the series with 92US657 and with J1.1 were greater than 80% and greater than 95%, respectively. Also, the “Mifepristone concentrations that saturate AAG” value in [5] was “exceeding 2.5 microM”. Moreover, the “mifepristone concentrations that consistently resulted in inhibition of HIV replication” value in [8] (FIG. 2) fell in the range of 40 to 1000 nM; in series [8] (FIG. 2, nM converted to ng/ml), 17 to 430 ng/mL. Besides, the “Inhibition of viral replication by mifepristone” value in series [8] (U937 cells, different concentrations of mifepristone) is “dose-dependent”. Further, the negative logarithm of the IC50 (pIC50) in series [8] (read-out: IC50 of mifepristone, inhibition of HIV replication in vitro, FIG. 2, U937 cells infected with wild type HIV-1 NL43) is 8.10. In series [10], the “inhibition of viral replication” value is recorded as greater than 90%.

As to `C[C@]12CCC(=O)C=C1CC[C@@H]1[C@@H]2[C@@H](O)C[C@@]2(C)[C@H]1CC[C@]2(O)C(=O)CO` [cortisol], the “relative binding affinities to the human glucocorticoid receptor” value in series [3] is on record as 23%.

Usually pIC50 stands for −log10 of the IC50, conventionally taken in molar units.

Source of the values: patent US20070259014A1, “Compositions for and Methods for Treating Hiv” (VGX PHARMACEUTICALS, INC., priority 2003, published 2007).
